# Assays:
# Format in all cases: functional
# [1] = Cytotoxicity against human SF295 cells assessed as cell growth at 10 uM after 2 days by SRB assay relative to control; settings: SF-295, 48 h, read-out: Activity
# [2] = Cytotoxicity against human SF268 cells assessed as cell growth at 10 uM after 2 days by SRB assay relative to control; settings: SF-268, 48 h, read-out: Activity
# [3] = Cytotoxicity against human PC3 cells assessed as cell growth at 10 uM after 2 days by SRB assay relative to control; settings: PC-3, 48 h, read-out: Activity
# [4] = Cytotoxicity against human UACC257 cells assessed as cell growth at 10 uM after 2 days by SRB assay relative to control; settings: UACC-257, 48 h, read-out: Activity
# [5] = Cytotoxicity against human SK-MEL-5 cells assessed as cell growth at 10 uM after 2 days by SRB assay relative to control; settings: SK-MEL-5, 48 h, read-out: Activity
# [6] = Cytotoxicity against human SK-MEL-28 cells assessed as cell growth at 10 uM after 2 days by SRB assay relative to control; settings: SK-MEL-28, 48 h, read-out: Activity
# [7] = Cytotoxicity against human MALME-3M cells assessed as cell growth at 10 uM after 2 days by SRB assay relative to control; settings: 48 h, read-out: Activity
# [8] = Cytotoxicity against human M14 cells assessed as cell growth at 10 uM after 2 days by SRB assay relative to control; settings: M14, 48 h, read-out: Activity
# [9] = Cytotoxicity against human LOXIMVI cells assessed as cell growth at 10 uM after 2 days by SRB assay relative to control; settings: LOX IMVI, 48 h, read-out: Activity
# [10] = Cytotoxicity against human SN12C cells assessed as cell growth at 10 uM after 2 days by SRB assay relative to control; settings: 48 h, read-out: Activity
# [11] = Cytotoxicity against human ACHN cells assessed as cell growth at 10 uM after 2 days by SRB assay relative to control; settings: 48 h, read-out: Activity
# [12] = Cytotoxicity against human 786-0 cells assessed as cell growth at 10 uM after 2 days by SRB assay relative to control; settings: 786-0, 48 h, read-out: Activity
# [13] = Cytotoxicity against human K562 cells assessed as cell growth at 10 uM after 2 days by SRB assay relative to control; settings: K562, 48 h, read-out: Activity
# [14] = Cytotoxicity against human HL-60(TB) cells assessed as cell growth at 10 uM after 2 days by SRB assay relative to control; settings: HL-60, 48 h, read-out: Activity
# [15] = Cytotoxicity against human CCRF-CEM cells assessed as cell growth at 10 uM after 2 days by SRB assay relative to control; settings: 48 h, read-out: Activity
# [16] = Cytotoxicity against human OVCAR8 cells assessed as cell growth at 10 uM after 2 days by SRB assay relative to control; settings: OVCAR-8, 48 h, read-out: Activity
# [17] = Cytotoxicity against human OVCAR5 cells assessed as cell growth at 10 uM after 2 days by SRB assay relative to control; settings: OVCAR-5, 48 h, read-out: Activity
# [18] = Cytotoxicity against human OVCAR4 cells assessed as cell growth at 10 uM after 2 days by SRB assay relative to control; settings: OVCAR-4, 48 h, read-out: Activity
# [19] = Cytotoxicity against human IGROV1 cells assessed as cell growth at 10 uM after 2 days by SRB assay relative to control; settings: IGROV-1, 48 h, read-out: Activity
# [20] = Cytotoxicity against human T47D cells assessed as cell growth at 10 uM after 2 days by SRB assay relative to control; settings: 48 h, read-out: Activity
# [21] = Cytotoxicity against human NCI/ADR-RES cells assessed as cell growth at 10 uM after 2 days by SRB assay relative to control; settings: 48 h, read-out: Activity
# [22] = Cytotoxicity against human MDA-MB-435 cells assessed as cell growth at 10 uM after 2 days by SRB assay relative to control; settings: MDA-MB-435, 48 h, read-out: Activity
# [23] = Cytotoxicity against human MCF7 cells assessed as cell growth at 10 uM after 2 days by SRB assay relative to control; settings: MCF7, 48 h, read-out: Activity
# [24] = Cytotoxicity against human Hs 578T cells assessed as cell growth at 10 uM after 2 days by SRB assay relative to control; settings: 48 h, read-out: Activity
# [25] = Cytotoxicity against human KM12 cells assessed as cell growth at 10 uM after 2 days by SRB assay relative to control; settings: KM12, 48 h, read-out: Activity
# [26] = Cytotoxicity against human HT-29 cells assessed as cell growth at 10 uM after 2 days by SRB assay relative to control; settings: HT-29, 48 h, read-out: Activity
# [27] = Cytotoxicity against human HCT15 cells assessed as cell growth at 10 uM after 2 days by SRB assay relative to control; settings: HCT-15, 48 h, read-out: Activity
# [28] = Cytotoxicity against human HCT116 cells assessed as cell growth at 10 uM after 2 days by SRB assay relative to control; settings: HCT-116, 48 h, read-out: Activity
# [29] = Cytotoxicity against human HCC2998 cells assessed as cell growth at 10 uM after 2 days by SRB assay relative to control; settings: HCC 2998, 48 h, read-out: Activity
# [30] = Cytotoxicity against human COLO205 cells assessed as cell growth at 10 uM after 2 days by SRB assay relative to control; settings: COLO 205, 48 h, read-out: Activity
# [31] = Cytotoxicity against human NCI-H522 cells assessed as cell growth at 10 uM after 2 days by SRB assay relative to control; settings: NCI-H522, 48 h, read-out: Activity
# [32] = Cytotoxicity against human NCI-H460 cells assessed as cell growth at 10 uM after 2 days by SRB assay relative to control; settings: NCI-H460, 48 h, read-out: Activity
# [33] = Cytotoxicity against human NCI-H23 cells assessed as cell growth at 10 uM after 2 days by SRB assay relative to control; settings: NCI-H23, 48 h, read-out: Activity
# [34] = Cytotoxicity against human NCI-H226 cells assessed as cell growth at 10 uM after 2 days by SRB assay relative to control; settings: NCI-H226, 48 h, read-out: Activity
# [35] = Cytotoxicity against human EKVX cells assessed as cell growth at 10 uM after 2 days by SRB assay relative to control; settings: 48 h, read-out: Activity
# [36] = Cytotoxicity against human A549 cells assessed as cell growth at 10 uM after 2 days by SRB assay relative to control; settings: A549, 48 h, read-out: Activity
# [37] = Cytotoxicity against human SNB19 cells assessed as cell growth at 10 uM after 2 days by SRB assay relative to control; settings: SNB-19, 48 h, read-out: Activity
# [38] = Cytotoxicity against human U251 cells assessed as cell growth at 10 uM after 2 days by SRB assay relative to control; settings: U-251, 48 h, read-out: Activity
SMILES,growth at 10 µM [1],growth at 10 µM [2],growth at 10 µM [3],growth at 10 µM [4],growth at 10 µM [5],growth at 10 µM [6],growth at 10 µM [7],growth at 10 µM [8],growth at 10 µM [9],growth at 10 µM [10],growth at 10 µM [11],growth at 10 µM [12],growth at 10 µM [13],growth at 10 µM [14],growth at 10 µM [15],growth at 10 µM [16],growth at 10 µM [17],growth at 10 µM [18],growth at 10 µM [19],growth at 10 µM [20],other results
COc1c(N[C@H]2C=C[C@@H](CO)C2)c(=O)c1=O,118%,112%,101%,89%,103%,125%,109%,97.1%,97.8%,112%,104%,98.5%,111%,96.4%,108%,94.6%,100%,109%,93%,106%,growth at 10 µM [21]: 107%; growth at 10 µM [22]: 118%; growth at 10 µM [23]: 94.2%; growth at 10 µM [24]: 114%; growth at 10 µM [25]: 87.7%; growth at 10 µM [26]: 113%; growth at 10 µM [27]: 111%; growth at 10 µM [28]: 95.7%; growth at 10 µM [29]: 107%; growth at 10 µM [30]: 141%; growth at 10 µM [31]: 86.5%; growth at 10 µM [32]: 105%; growth at 10 µM [33]: 108%; growth at 10 µM [34]: 105%; growth at 10 µM [35]: 125%; growth at 10 µM [36]: 97.8%; growth at 10 µM [37]: 106%; growth at 10 µM [38]: 103%
Nc1c(N[C@H]2C=C[C@@H](CO)C2)c(=O)c1=O,128%,165%,103%,97.7%,104%,128%,100%,101%,96.4%,105%,103%,106%,99.6%,96.7%,89.3%,92.8%,106%,111%,96.2%,105%,growth at 10 µM [21]: 108%; growth at 10 µM [22]: 114%; growth at 10 µM [23]: 101%; growth at 10 µM [24]: 129%; growth at 10 µM [25]: 122%; growth at 10 µM [26]: 110%; growth at 10 µM [27]: 103%; growth at 10 µM [28]: 108%; growth at 10 µM [29]: 107%; growth at 10 µM [30]: 121%; growth at 10 µM [31]: 90.1%; growth at 10 µM [32]: 104%; growth at 10 µM [33]: 111%; growth at 10 µM [34]: 107%; growth at 10 µM [35]: 121%; growth at 10 µM [36]: 97.9%; growth at 10 µM [37]: 110%; growth at 10 µM [38]: 103%
O=c1c(O)c(N[C@H]2C=C[C@@H](CO)C2)c1=O,73.5%,117%,110%,100%,106%,140%,115%,111%,117%,120%,108%,102%,104%,100%,116%,107%,108%,102%,111%,107%,growth at 10 µM [21]: 116%; growth at 10 µM [22]: 120%; growth at 10 µM [23]: 107%; growth at 10 µM [24]: 146%; growth at 10 µM [25]: 116%; growth at 10 µM [26]: 105%; growth at 10 µM [27]: 134%; growth at 10 µM [28]: 108%; growth at 10 µM [29]: 106%; growth at 10 µM [30]: 134%; growth at 10 µM [31]: 91.6%; growth at 10 µM [32]: 114%; growth at 10 µM [33]: 107%; growth at 10 µM [34]: 157%; growth at 10 µM [35]: 129%; growth at 10 µM [36]: 108%; growth at 10 µM [37]: 105%; growth at 10 µM [38]: 112%

# Reference: ChEMBL document CHEMBL3871297, “Squarate-based carbocyclic nucleosides: Syntheses, computational analyses and anticancer/antiviral evaluation” (2017)
